Measurements from US10759813B2, “Neprilysin inhibitors” (THERAVANCE BIOPHARMA R&D IP, LLC, priority 2010, dated 2020).

Target: human neprilysin (EC 3.4.24.11; NEP) (Homo sapiens (Human), UniProt P08473)
Experiment: In vitro enzyme inhibition assay at human NEP (fluorogenic peptide substrate)
Type: biochemical
Settings: pKi values at human NEP, recombinant human NEP
How it was run: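 pKi derived from apparent Ki fitted as v=v0/[1+(I/K′)] to Ex320/Em405 fluorescence. Compounds (pM to 10 μM) sat with recombinant human enzyme 30 min at 37 °C before 10 μM fluorogenic Mca peptide was added in HEPES pH 7.5 buffer with 10 μM ZnSO4; 20 min reaction, acetic acid quench.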

human neprilysin (EC 3.4.24.11; NEP), sequence (P08473 52-750): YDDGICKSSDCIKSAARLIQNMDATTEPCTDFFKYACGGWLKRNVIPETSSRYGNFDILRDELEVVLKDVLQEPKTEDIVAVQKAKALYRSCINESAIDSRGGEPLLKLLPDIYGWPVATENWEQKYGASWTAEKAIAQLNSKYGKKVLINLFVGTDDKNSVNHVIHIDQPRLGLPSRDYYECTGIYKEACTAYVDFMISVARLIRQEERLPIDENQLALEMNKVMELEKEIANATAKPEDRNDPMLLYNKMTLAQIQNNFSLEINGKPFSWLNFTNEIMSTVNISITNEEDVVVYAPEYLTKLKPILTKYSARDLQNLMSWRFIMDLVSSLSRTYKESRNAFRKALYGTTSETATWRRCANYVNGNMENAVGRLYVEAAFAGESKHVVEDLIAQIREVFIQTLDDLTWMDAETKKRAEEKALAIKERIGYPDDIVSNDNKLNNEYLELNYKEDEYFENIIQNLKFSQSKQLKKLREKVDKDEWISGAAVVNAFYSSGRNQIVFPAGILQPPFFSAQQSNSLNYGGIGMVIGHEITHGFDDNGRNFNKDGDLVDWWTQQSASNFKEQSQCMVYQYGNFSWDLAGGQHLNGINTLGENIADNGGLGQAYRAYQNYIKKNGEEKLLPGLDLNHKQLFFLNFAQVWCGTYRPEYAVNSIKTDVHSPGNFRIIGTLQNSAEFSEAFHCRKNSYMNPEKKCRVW

Row | Ki [nM] | pKi | SMILES
1 | 1.26 to 10 | – | O=C(N[C@H](Cc1ccc(-c2ccccc2)cc1)CC(O)C(=O)O)c1cc(F)c2[nH]nnc2c1 (stereo partly drawn) [Example 11-4, (R)-5-Biphenyl-4-yl-4-[(7-fluoro-1H-benzotriazole-5-carbonyl)amino]-2-hydroxy-pentanoic acid]
2 | – | ≥9.0 | CN(C)C(=O)c1cc(C(=O)N[C@H](Cc2ccc(-c3ccccc3)cc2)C[C@@H](O)C(=O)O)[nH]n1 [Example 15-63, (2R,4R)-5-Biphenyl-4-yl-4-[(5-dimethylcarbamoyl-2H-pyrazole-3-carbonyl)-amino]-2-hydroxy-pentanoic acid]
3 | 1.26 to 10 | – | O=C(N[C@H](Cc1ccc(-c2ccccc2)cc1)CC(O)C(=O)O)c1cc(C(=O)O)n(Cc2c(F)ccc(Cl)c2F)n1 (stereo partly drawn) [Example 15-16, 5-((R)-1-Biphenyl-4-ylmethyl-3-carboxy-3-hydroxy-propylcarbamoyl)-2-(3-chloro-2,6-difluorobenzyl)-2H-pyrazole-3-carboxylic acid]
4 | 1.26 to 10 | – | O=C(N[C@H](Cc1ccc(-c2ccccc2)cc1)C[C@@H](O)C(=O)O)c1cc2n(n1)CCCOc1ccccc1-2 [Example 16-3, (2R,4R)-5-Biphenyl-4-yl-2-hydroxy-4-[(10-oxa-5,6-diaza-tricyclo[9.4.0.02,6]pentadeca-1(15),2,4,11,13-pentaene-4-carbonyl)-amino]-pentanoic acid]
5 | – | ≥9.0 | COCc1cc(C(=O)N[C@H](Cc2ccc(-c3cccc(Cl)c3)cc2Cl)C[C@@H](O)C(=O)O)[nH]n1 [Example 21-2, (2R,4R)-5-(3,3′-Dichloro-biphenyl-4-yl)-2-hydroxy-4-[(5-methoxymethyl-2H-pyrazole-3-carbonyl)-amino]-pentanoic acid]
6 | 12.6 to 100 | – | Cc1n[nH]c(C(=O)N[C@H](Cc2ccc(-c3ccccc3)cc2)CC(O)C(=O)O)n1 (stereo partly drawn) [Example 10-11, (R)-5-Biphenyl-4-yl-2-hydroxy-4-[(5-methyl-2H-[1,2,4]triazole-3-carbonyl)amino]pentanoic acid]
7 | – | ≥9.0 | O=C(N[C@H](Cc1ccc(-c2ccccc2)cc1)C[C@@H](O)C(=O)O)c1cc(-c2ccccc2F)no1 [Example 12-9, (2R,4R)-5-Biphenyl-4-yl-4-{[3-(2-fluorophenyl)-isoxazole-5-carbonyl]-amino}-2-hydroxy-pentanoic acid]
8 | ≤ 1 | – | O=C(N[C@H](Cc1ccc(-c2cccc(Cl)c2)cc1)C[C@@H](O)C(=O)O)c1cn(O)nn1 [Example 17-A, (2R,4R)-5-(3′-Chlorobiphenyl-4-yl)-2-hydroxy-4-[(1-hydroxy-1H-[1,2,3]triazole-4-carbonyl)-amino]pentanoic Acid]
9 | – | ≥9.0 | O=C(N[C@H](Cc1ccc(-c2ccccc2)cc1Cl)C[C@@H](O)C(=O)O)c1nn(-c2ccccc2)c(=O)[nH]1 [Example 20-4, (2R,4R)-5-(3-Chloro-biphenyl-4-yl)-2-hydroxy-4-[(5-oxo-1-phenyl-4,5-dihydro-1H-[1,2,4]triazole-3-carbonyl)-amino]-pentanoic acid]
10 | 1.26 to 10 | – | CN(C)CCNC(=O)c1cc(C(=O)N[C@H](Cc2ccc(-c3ccccc3)cc2)CC(O)C(=O)O)[nH]n1 (stereo partly drawn) [Example 15-71, (R)-5-Biphenyl-4-yl-4-{[5-(2-dimethylamino-ethylcarbamoyl)-2H-pyrazole-3-carbonyl]-amino}-2-hydroxy-pentanoic acid]
11 | 1.26 to 10 | – | COc1ccccc1C(=O)Nc1cc(C(=O)N[C@H](Cc2ccc(-c3ccccc3)cc2)CC(O)C(=O)O)[nH]n1 (stereo partly drawn) [Example 15-95, (R)-5-Biphenyl-4-yl-2-hydroxy-4-{[5-(2-methoxy-benzoylamino)-2H-pyrazole-3-carbonyl]-amino}-pentanoic acid]
12 | 1.26 to 10 | – | O=C(N[C@H](Cc1ccc(-c2ccccc2)cc1)CC(O)C(=O)O)c1cc(C(=O)O)n(Cc2ccc(Cl)cc2)n1 (stereo partly drawn) [Example 15-15, 5-((R)-1-Biphenyl-4-ylmethyl-3-carboxy-3-hydroxy-propylcarbamoyl)-2-(4-chlorobenzyl)-2H-pyrazole-3-carboxylic acid]
13 | – | ≥9.0 | CCOc1cc(C(=O)N[C@H](Cc2ccc(-c3cccc(Cl)c3)cc2)C[C@@H](O)C(=O)O)n[nH]1 [Example 18-40, (2R,4R)-5-(3′-Chloro-biphenyl-4-yl)-4-[(5-ethoxy-1H-pyrazole-3-carbonyl)-amino]-2-hydroxy-pentanoic acid]
14 | 12.6 to 100 | – | O=C(N[C@H](Cc1ccc(-c2ccccc2)cc1)CC(O)C(=O)O)c1cc(-c2ccccc2C(F)(F)F)n[nH]1 (stereo partly drawn) [Example 15-81, (R)-5-Biphenyl-4-yl-2-hydroxy-4-{[5-(2-trifluoromethyl-phenyl)-2H-pyrazole-3-carbonyl]-amino}-pentanoic acid]
15 | – | ≥9.0 | O=C(N[C@H](Cc1ccc(-c2ccccc2)cc1)C[C@@H](O)C(=O)O)c1cc(-c2ccccc2O)on1 [Example 12-21, (2R,4R)-5-Biphenyl-4-yl-2-hydroxy-4-{[5-(2-hydroxy-phenyl)-isoxazole-3-carbonyl]-amino}-pentanoic acid]
16 | 12.6 to 100 | – | O=C(N[C@H](Cc1ccc(-c2ccccc2)cc1)C[C@H](O)C(=O)O)c1cc(C(=O)N2CCC(O)CC2)n[nH]1 [Example 15-50, (2S,4R)-5-Biphenyl-4-yl-2-hydroxy-4-{[5-(4-hydroxypiperidine-1-carbonyl)-2H-pyrazole-3-carbonyl]-amino}-pentanoic acid]
17 | 1.26 to 10 | – | C[C@H](O)c1cc(C(=O)N[C@H](Cc2ccc(-c3ccccc3)cc2)C[C@@H](O)C(=O)O)[nH]n1 [Example 15-109, (2R,4R)-5-Biphenyl-4-yl-2-hydroxy-4-{[5-((S)-1-hydroxyethyl)-2H-pyrazole-3-carbonyl]amino}pentanoic acid]
18 | – | ≥9.0 | O=C(N[C@H](Cc1ccc(-c2ccccc2)cc1)C[C@@H](O)C(=O)O)c1cc(-c2ccc(Cl)cc2Cl)[nH]n1 [Example 15-26, (2R,4R)-5-Biphenyl-4-yl-4-{[5-(2,4-dichlorophenyl)-1H-pyrazole-3-carbonyl]-amino}-2-hydroxy-pentanoic acid]
19 | – | ≥9.0 | COc1ccc(F)cc1-c1cc(C(=O)N[C@H](Cc2ccc(-c3ccccc3)cc2)C[C@@H](O)C(=O)O)[nH]n1 [Example 15-86, (2R,4R)-5-Biphenyl-4-yl-4-{[5-(5-fluoro-2-methoxy-phenyl)-2H-pyrazole-3-carbonyl]-amino}-2-hydroxy-pentanoic acid]
20 | – | ≥9.0 | O=C(N[C@H](Cc1ccc(-c2ccccc2)cc1)C[C@@H](O)C(=O)O)c1cc2n(n1)CCOc1ccccc1-2 [Example 16-1, (2R,4R)-5-Biphenyl-4-yl-4-[(4,5-dihydro-6-oxa-3,3a-diaza-benzo[e]azulene-2-carbonyl)-amino]-2-hydroxy-pentanoic acid]
21 | – | ≥9.0 | CCCc1cc(C(=O)N[C@H](Cc2ccc(-c3cccc(Cl)c3)cc2)C[C@@H](O)C(=O)O)on1 [Example 18-11, (2R,4R)-5-(3′-Chloro-biphenyl-4-yl)-2-hydroxy-4-[(3-propyl-isoxazole-5-carbonyl)-amino]-pentanoic acid]
22 | – | ≥9.0 | COCCN(C)C(=O)c1cc(C(=O)N[C@H](Cc2ccc(-c3ccccc3)cc2Cl)C[C@@H](O)C(=O)O)[nH]n1 [Example 20-6, (2R,4R)-5-(3-Chloro-biphenyl-4-yl)-2-hydroxy-4-({5-[(2-methoxy-ethyl)-methyl-carbamoyl]-2H-pyrazole-3-carbonyl}-amino)-pentanoic acid]
